Earlier results as cited in US20160038468A1 (priority 2013, published 2016).

Test system: vaginal infections
Conditions: daily dosage less than 100 mg/day; cited from earlier work

In the case of CO[C@H]1/C=C/O[C@@]2(C)Oc3c(C)c(O)c4c(O)c(c5c(nc6cc(C)ccn65)c4c3C2=O)NC(=O)/C(C)=C\C=C\[C@H](C)[C@H](O)[C@@H](C)[C@@H](O)[C@@H](C)[C@H](OC(C)=O)[C@@H]1C [Rifaximin], the “efficacy in the treatment of vaginal infections” value is listed as “efficacious”.
